# pIC50: −log10 of the molar value.
# Tests used:
# [1] = Measurement of turbidity in BSA; assay type: physicochemical; settings: BSA 1%, peptide 50 μM, absorbance at 600 nm
# Protocol: The solutions were evaluated for their absorbance at a wavelength of 600 nm by using a spectrophotometer (DU640, manufactured by Beckman).
# [2] = Affinity for phosphatidyl serine (EIA, inhibition of human Factor VIII binding); settings: for pIC50: class of IC50 for inhibiting human Factor VIII binding, 5% BSA
# Protocol: The specific affinity of the peptide for phosphatidyl serine was evaluated by measuring activity of the peptide for inhibiting the binding of the human Factor VIII to phosphatidyl serine by using human Factor VIII which is known to bind to phosphatidyl serine but not to phosphatidyl choline in the presence of serum albumin. To be more specific, 100 μL of ethanol solution containing 10 μg/mL of phospholipids at a phosphatidyl serine (manufactured by SIGMA): phosphatidyl choline (manufactured by SIGMA) ratio of 3:7 was added to the wells of a 96 well plate (Immulon I, manufactured by Dynatech), and exsiccated by using a centrifugal evaporator (EC-95C, manufactured by Sakuma Seisakusho) at 40° C. for 40 minutes. 200 μL each of TBS (10 mM Tris-HCl (pH 7.4) containing 1% bovine serum albumin (BSA Fraction V, hereinafter referred to as BSA, manufactured by Seikagaku Corporation) and 0.9% (W/V) NaCl solution were added to each well, and the wells were blocked by allowing the plate to stand at 37° C. for 2.5 hours. After washing the plate with water, 100 μL of TBS solution supplemented with 5% BSA mixed with human Factor VIII (manufactured by American Diagnostica) at a final concentration 1 μg/mL and the peptide of predetermined dose prepared in Example 1 was added to each well, and the reaction was allowed to take place at 4° C. for 24 hours.
# After the completion of the reaction, the human Factor VIII that became bound to the phosphatidyl serine was measured by enzyme immunoassay (EIA) in accordance with the general procedure described in a book (“Enzyme Immunoassay (3rd ed.)”, Eiji Ishikawa et al., Igaku-Shoin, 1987). To be more specific, the measurement was conducted by using anti-human Factor VIII mouse monoclonal antibody (ESH8, manufactured by American Diagnostica) for the primary antibody, horseradish peroxidase-labeled anti-mouse IgG antibody (P0260, manufactured by Daco) for the secondary antibody, and tetramethylbenzidine for the chromogenic substrate, and measuring the absorption at a wavelength of 450 nm by using a reference wavelength of 630 nm on a spectrophotometer (NJ-2100, manufactured by Intermed).
# Intensity of the affinity of the peptide for the phosphatidyl serine was evaluated by using the value obtained by subtracting the absorption of the well having no human Factor VIII added thereto from the absorption of the well having only the human Factor VIII added thereto as the control value (100%), and designating the peptide concentration at which the value 0.5 was obtained when the value obtained by subtracting the absorption of the well having only the peptide added thereto from the absorption of the well having a mixture of the human Factor VIII and the peptide added thereto were divided by the control value as the IC50 value, and evaluating the intensity to be ++ when the IC50 value was up to 1 μM, and +when the intensity was more than 1 μM but not more than 10 μM. It is to be noted that the specific affinity was evaluated to be none when the intensity was 10 μM or more.
# [3] = tested on: cell (Vero, T24 or A549 of Example 9; not given); test: Nucleic acid-introducing ability, luciferase-expressing plasmid (procedure of Example 9); assay type: cell-based; settings: for ability of introducing the nucleic acid into a cell: procedure of Example 9, luciferase-expressing plasmid; for Nucleic acid-introducing ability: class of fluorescent count per 1 mg of protein per 1 second, highest of peptide 1.25, 2.5, 5 μM, plasmid 1 μg/mL
# Text: A cell line established from monkey kidney (Vero cell) and a human bladder cancer cell (T24 cell) purchased from American Type Culture Collection (ATCC) and human lung cancer cell (A549 cell) purchased from Dainippon Pharmaceutical were inoculated on a 24 well culture plate (manufactured by NALGEN NUNC) at 1×10^5 cells/well. Vero cell and A549 cell were cultivated in DMEM (manufactured by Life Technologies Oriental) supplemented with 10% fetal bovine serum (hereinafter referred to as FBS, manufactured by NICHIREI), and T24 cell was cultivated in McCoy's 5a (manufactured by Life Technologies Oriental) supplemented with 10% FBS in 5% CO2 atmosphere at 37° C. for 24 hours. After removing the medium, opti-MEM (manufactured by Life Technologies Oriental) prepared to have the concentration of the luciferase-expressing plasmid prepared in Example 7 of 1 μg/mL and the concentration of the peptide prepared in Example 1 of 1.25, 2.5, or 5 μM was added, and the cells were cultivated for 5 hours. Next, in the case of Vero cell and A549 cell, the culture medium was replaced with DMEM supplemented with 10% FBS, and in the case of T24 cell, the medium was replaced with McCoy's 5a supplemented with 10% FBS, and cultivation was continued in 5% CO2 atmosphere and at 37° C. for another 24 hours. The luciferase activity expressed in the cell was then measured by the method instructed in luciferase assay system (manufactured by Promega). To be more specific, the cells were washed with phosphate-buffered saline (hereinafter referred to as PBS, manufactured by SIGMA), and the cells were lyzed with Passive Lysis Buffer attached to the kit. 20 μL of this cell lysate and 100 μL of the Luciferase Assay Reagent II attached to the kit was added to a fluorescence-measuring plate (Microlite™ 1 plate, manufactured by Dynatech), and after mixing, fluorescence was measured for 1 second by using a multilabel counter (ARVO™ SY1420 MULTILABEL COUNTER, manufactured by Wallac Beltold.
# Concentration of the protein in the cell lysate was measured by mixing 8 μL of the cell lysate and 200 μL of the protein assay solution (manufactured by Biorad) with 792 μL of ultrapure water in a disposable cuvette (UV fluorescent cuvette A204X, manufactured by Funakoshi), allowing the mixture to stand for 5 minutes at room temperature, and measuring the absorption at 595 nm with a spectrophotometer (DU640, manufactured by Beckman). Bovine serum albumin (BSA) was used for the standard protein. By using the thus obtained results, count per 1 second per 1 mg of protein of the cell lysate was calculated to thereby use the count as the luciferase activity, and the highest count in the three conditions of different peptide concentration was designated the gene-introducing ability of the peptide.
# It is to be noted that the nucleic acid-introducing ability was classified as described below on the bases of the fluorescent count per 1 mg of protein per 1 second (cps/mg protein).
pIC50 [2],Substance,OD 600 [1],Nucleic acid-introducing ability [3],other results
,Polylysine [reference compound],≥ 1,,affinity for phosphatidyl serine ([2]; procedure of Example 20): no affinity for phosphatidyl serine
,"SEQ ID NO:26: comparative peptide, SEQ ID NO:1 substituted so that it lacks the four sided 18 amino acid sequence (TRYLRIHPRSWVLQIALRLRYLRIHPRSWVLQIALRS; synthetic peptide using an automatic peptide synthesizer) [reference compound]",,,"fluorescent count ([3]; procedure of Example 9): less than 10,000 cps/mg protein; ability of introducing the nucleic acid into a cell [3]: no nucleic acid-introducing ability was found"
> 6.00,SEQ ID NO: 2: peptide of SEQ ID NO:1 with one or two locations substituted in the 18 amino acid sequence (TRYLRIHPRSWVRQIALRLRYLRIHPRSWVRQIALRS; synthetic peptide using an automatic peptide synthesizer),0.01>,"3+ (1,000,000 to less than 10,000,000)",
> 6.00,SEQ ID NO: 3: peptide of SEQ ID NO:1 with one or two locations substituted in the 18 amino acid sequence (TRYLRIHPRSWVHQIRLRLRYLRIHPRSWVHQIRLRS; synthetic peptide using an automatic peptide synthesizer),0.01>,"2+ (100,000 to less than 1,000,000)",
> 6.00,SEQ ID NO: 5: peptide of SEQ ID NO:1 with one or two locations substituted in the 18 amino acid sequence (TRFLRIHPRSWVHQIALRLRFLRIHPRSWVHQIALRS; synthetic peptide using an automatic peptide synthesizer),0.01>,"2+ (100,000 to less than 1,000,000)",
> 6.00,SEQ ID NO: 6: peptide of SEQ ID NO:1 with one or two locations substituted in the 18 amino acid sequence (TRYLRIHPRSWVHNIALRLRYLRIHPRSWVHNIALRS; synthetic peptide using an automatic peptide synthesizer),0.01>,"2+ (100,000 to less than 1,000,000)",
5.00 to 6.00,SEQ ID NO: 7: peptide of SEQ ID NO:1 with one or two locations substituted in the 18 amino acid sequence (TRYLRIHPRSWVHQIALKLKYLRIHPRSWVHQIALRS; synthetic peptide using an automatic peptide synthesizer),0.01>,"2+ (100,000 to less than 1,000,000)",
,SEQ ID NO: 9: peptide of SEQ ID NO:1 with one or two locations substituted in the 18 amino acid sequence (TRYLRIHPRSWVHQIALRTRYLRIHPRSWVHQIALRS; synthetic peptide using an automatic peptide synthesizer),,"3+ (1,000,000 to less than 10,000,000)",
,SEQ ID NO: 12: peptide of SEQ ID NO:1 with one or two locations substituted in the 18 amino acid sequence (TRYLRIHPRSWVHQIALSLRYLRIHPRSWVHQIALSS; synthetic peptide using an automatic peptide synthesizer),,"2+ (100,000 to less than 1,000,000)",
,SEQ ID NO: 13: peptide of SEQ ID NO:1 with one or two locations substituted in the 18 amino acid sequence (TRYLRIHPRSLVHQIALRLRYLRIHPRSLVHQIALRS; synthetic peptide using an automatic peptide synthesizer),,"3+ (1,000,000 to less than 10,000,000)",
,SEQ ID NO: 14: peptide of SEQ ID NO:1 with one or two locations substituted in the 18 amino acid sequence (TRYLRIHPRSWSHQIALRLRYLRIHPRSWSHQIALRS; synthetic peptide using an automatic peptide synthesizer),,"3+ (1,000,000 to less than 10,000,000)",
,SEQ ID NO: 18: peptide of SEQ ID NO:1 with one or two locations substituted in the 18 amino acid sequence (TRYLRIHPRSWLHQIALRTRYLRIHPRSWLHQIALRS; synthetic peptide using an automatic peptide synthesizer),,"4+ (10,000,000 or more)",
,SEQ ID NO: 20: peptide of SEQ ID NO:1 with three locations substituted in the 18 amino acid sequence (TRYLRLHPRSWVHQLALRTRYLRLHPRSWVHQLALRS; synthetic peptide using an automatic peptide synthesizer),,"4+ (10,000,000 or more)",
,SEQ ID NO: 21: peptide of SEQ ID NO:1 with three locations substituted in the 18 amino acid sequence (TKYLKIHPKSWVHQIALRLKYLKIHPKSWVHQIALRS; synthetic peptide using an automatic peptide synthesizer),,"2+ (100,000 to less than 1,000,000)",
,SEQ ID NO: 22: peptide of SEQ ID NO:1 with three locations substituted in the 18 amino acid sequence (TRRLRIHPRRWVHRIALRLRRLRIHPRRWVHRIALRS; synthetic peptide using an automatic peptide synthesizer),,"3+ (1,000,000 to less than 10,000,000)",
,SEQ ID NO: 24: deletion mutant of the peptide of SEQ ID NO:4 (TLRYLRIHPRSWLHQIALRS; synthetic peptide using an automatic peptide synthesizer),,"1+ (10,000 to less than 100,000)",ability of introducing the nucleic acid into a cell [3]: had the ability of introducing the nucleic acid into a cell

# — patent US20040171795A1, “Novel peptides” (priority 2000, published 2004)
